Consider 12 compounds from the Kinase Knowledgebase extract (Sharma et al. 2016).

The target in assay [1] is MAPK14 (human) (UniProt Q16539). Nature of the assay: Inhibition of MAPK14 Kinase Activity.
Assay [2] has the same target. Nature of the assay: Assessment of MAPK14 Kinase Activity.

Chain of MAPK14 (human) (Q16539 whole entry, looked up): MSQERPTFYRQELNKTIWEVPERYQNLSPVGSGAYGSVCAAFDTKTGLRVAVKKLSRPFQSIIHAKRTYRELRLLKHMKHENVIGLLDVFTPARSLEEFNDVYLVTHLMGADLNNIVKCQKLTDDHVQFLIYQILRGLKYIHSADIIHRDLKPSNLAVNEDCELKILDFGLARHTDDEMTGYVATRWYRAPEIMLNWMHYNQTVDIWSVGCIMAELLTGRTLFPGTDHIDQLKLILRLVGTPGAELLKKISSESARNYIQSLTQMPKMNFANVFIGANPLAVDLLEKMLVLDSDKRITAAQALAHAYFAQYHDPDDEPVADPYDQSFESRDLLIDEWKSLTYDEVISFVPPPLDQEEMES

Take `Cc1c(F)cc(C(=O)NC2CC2)cc1-c1ccc(C(=O)NCC(C)(C)C)c[n+]1[O-]`: the IC50 against MAPK14 (human) [1] and on MAPK14 (human) [2] was below 10 µM throughout.
For the compound `CCC(CC)NC(=O)c1ccc(-c2cc(C(=O)NC3CC3)cc(F)c2C)[n+]([O-])c1`, the IC50 against MAPK14 (human) [1] and against MAPK14 (human) [2] was below 10 µM throughout.
For the compound `Cc1ccc(C)c(CNC(=O)c2ccc(-c3cc(C(=O)NC4CC4)cc(F)c3C)[n+]([O-])c2)c1`, the IC50 on MAPK14 (human) [1] and against MAPK14 (human) [2] was below 10 µM each time.
`CCC(C)(C)NC(=O)c1ccc(-c2cc(C(=O)NC3CC3)cc(F)c2C)[n+]([O-])c1`: the IC50 at MAPK14 (human) [1] and at MAPK14 (human) [2] was below 10 µM each time.
As to `Cc1c(F)cc(C(=O)NC2CC2)cc1-c1ccc(C(=O)NCc2ccc(C(F)(F)F)cc2C(F)(F)F)c[n+]1[O-]`, the IC50 on MAPK14 (human) [1] and on MAPK14 (human) [2] was below 10 µM throughout.
`Cc1ccc(CNC(=O)c2ccc(-c3cc(C(=O)NC4CC4)cc(F)c3C)[n+]([O-])c2)cc1C`: the IC50 against MAPK14 (human) [1] and against MAPK14 (human) [2] was below 10 µM each time.
In the case of `CCc1ccccc1CNC(=O)c1ccc(-c2cc(C(=O)NC3CC3)cc(F)c2C)[n+]([O-])c1`, the IC50 at MAPK14 (human) [1] and against MAPK14 (human) [2] was below 10 µM in each case.
As to `Cc1c(F)cc(C(=O)NC2CC2)cc1-c1ccc(C(=O)N[C@H](C)C(C)C)c[n+]1[O-]`, the IC50 at MAPK14 (human) [1] and on MAPK14 (human) [2] was below 10 µM in each case.
Turning to `COC[C@H](C)NC(=O)c1ccc(-c2cc(C(=O)NC3CC3)cc(F)c2C)[n+]([O-])c1`, the IC50 at MAPK14 (human) [1] and against MAPK14 (human) [2] was below 10 µM throughout.
For the compound `Cc1c(F)cc(C(=O)NC2CC2)cc1-c1ccc(C(=O)NC(C)c2ccc(Cl)cc2)c[n+]1[O-]` (centres undefined), the IC50 at MAPK14 (human) [1] and at MAPK14 (human) [2] was below 10 µM each time.
`CCC1CCCN(C(=O)c2ccc(-c3cc(C(=O)NC4CC4)cc(F)c3C)[n+]([O-])c2)C1` (centres undefined): the IC50 against MAPK14 (human) [1] and at MAPK14 (human) [2] was below 10 µM each time.
`CCCNC(=O)c1ccc(-c2cc(C(=O)NC3CC3)cc(F)c2C)[n+]([O-])c1`: the IC50 at MAPK14 (human) [1] and against MAPK14 (human) [2] was below 10 µM each time.

By IC50 is commonly meant the concentration at which inhibition is half-maximal. High values mean weaker potency in that assay, low ones greater potency in that assay.
